From patent publication US20200046619A1, “Deodorizing Composition Comprising Zinc Neodecanoate” (GIVAUDAN SA, priority 2016, published 2020)

Tests used:
[1] = test system: subject's axilla malodour; experiment: Sensory test comparing zinc neodecanoate and zinc ricinoleate: perceived malodour intensity of axillae rated by trained panel; type: in vivo, human; conditions: for perceived malodour intensity: 0-100 line scale, 24 hours after application of 1.0 g aerosol (4% zinc salt, 12% cyclomethicone, 84% propellant) to axilla, 10 male subjects
Method: Aerosols were prepared using the following two test formulations, respectively: • 4% zinc neodecanoate, 12% cyclomethicone, 84% propellant • 4% zinc ricinoleate, 12% cyclomethicone, 84% propellant (propellant=isobutane/propane mix)
5 days prior to testing, the male subjects substituted their normal body wash with an unperfumed product (Sanex 0% Bodywash) and were asked to only use a specific deodorant supplied (Lynx Attract for Him).
On the morning before the test, the male subjects were asked to shower using an unperfumed shower gel provided and not use any antiperspirant product or apply any other fragranced products.
Subjects reported to a panel suite in the morning in two groups for test product application.
The administrator applied 1.0 g of each product to each subject's axilla. Each subject wore both of the test formulations (one on each axilla region). The manner in which each test formulation was applied (left or right axilla) was randomised. Each of a subject's axilla was then coded with a random code number.
The subjects were asked not to shower until after the test had been completed the next day. The subjects were also provided with a list of rules, by which they had to abide for the duration of the test. The rules included no swimming and no gym activity between test formulation application and assessment.
The subjects' axillae were thereafter tested by sensory panellists. The members of the sensory panels had been selected on a basis of their olfactory sensory acuity and had thereafter received training for a period of 4-6 months. […]
The sensory panellists were asked to rate the perceived malodour intensity for each of the subject's axilla using a 0-100 line scale. The order of samples assessed was pre-determined using a balanced randomisation. The axillae were assessed in a sequential monadic way. […]
The subjects were separated into two groups to be assessed by the panellists and each group was assessed by 22 panellists.
The data was analysed using an analysis of variance and multiple comparison test with a confidence level of 95%.

[2] = Solubility test of zinc salts in model aerosol base formulation; type: physicochemical; conditions: 4% zinc salt, 12% cyclomethicone, 84% pentane; agitated several hours at room temperature, stood overnight
Description: The solubility of several zinc salts was explored using the following model aerosol base formulation: • 4% zinc salt • 12% cyclomethicone • 84% pentane
(Pentane was used as a surrogate for isobutane/propane mix as it is easier to handle in a laboratory.)
Each salt and aerosol formulation was placed in a sealed glass vial that was agitated for several hours at room temperature. The resulting suspensions/solutions were allowed to stand overnight and any remaining solid matter present was noted.

[3] = White marks: visible solid residue on black cloth after aerosol spraying; type: physicochemical; conditions: approximately 3 g aerosol (4% zinc neodecanoate, 12% cyclomethicone, 84% propellant) dispensed; compared with zinc ricinoleate and aluminium chlorohydrate aerosols
Method: Aerosols were prepared using the following three test formulations, respectively: • 4% zinc neodecanoate, 12% cyclomethicone, 84% propellant • 4% zinc ricinoleate, 12% cyclomethicone, 84% propellant • 10% aluminium chlorohydrate, 0.8% disteardimonium hectorite, 12% cyclomethicone, 76.2% propellant (propellant=isobutane/propane mix)
Several card templates were prepared where a large X-shaped hole was present in each template. Each template was then placed over a black piece of cloth. The aerosols were shaken well, and then approximately 3 g of one of the three aerosols was dispensed over each template hole. Several minutes were allowed for any propellant to evaporate and the presence of any visible solid residues was noted.

Substance | perceived malodour intensity [1] | malodour intensity compared with underarms treated with zinc ricinoleate ([1]; analysis of variance and multiple comparison test, confidence level 95%, 24 hours after application) | remaining solid matter present (solubility) [2] | visible solid residue on black cloth [3]
zinc neodecanoate | 12.1 (+/−0.8) | significantly lower malodour intensity | without any solid present | did not leave a powdered residue
zinc ricinoleate [reference compound] | 14.0 (+/−0.8) | – | – | –
